From patent publication US6482809B1, “Use of tiludronic acid and derivatives thereof in poultry for the preparation of a medicinal product for preventing and treating osteoporosis” (Ceva Sante Animale, priority 2000, dated 2002)

Tests used:
[1] = test system: trabecular bone of laying hens; conditions: cited from earlier work
[2] = test system: medullary bone of laying hens; conditions: 18 weeks after the onset of laying; treated before the onset of laying; cited from earlier work
[3] = test system: egg production of laying hens; conditions: administered during laying; decrease or even stoppage of laying as a function of the dose; cited from earlier work
[4] = test system: trabecular bone of the tarsometatarsal bone of hens; assay: Histomorphometric examination of trabecular bone volume of the tarsometatarsal bone after a single subcutaneous administration; assay type: in vivo, hens of ISA Brown strain
Description: (§1) A total number of 216 hens of ISA Brown strain between 15 and 17 weeks old was divided into 3 groups for the purpose of evaluating the effects on bone of a single subcutaneous administration of tiludronic acid, in the form of its sodium salt (disodium tiludronate).
(§2) Three doses were compared: 0, 1 and 10 mg/kg (corresponding amount of tiludronic acid/kg). The tiludronic acid was administered in the form of injectable aqueous solutions such that the volume injected per bird was 1 ml per kilo of live weight. The tiludronic acid solutions were thus concentrated to 0.1% and 1% for the doses of 1 and 10 mg/kg, respectively. The control group received a placebo corresponding to water for an injectable preparation. The injections were performed subcutaneously in the region above the superficial pectoral muscle.
(§3) The hens were housed in individual cages in the same building at controlled temperature and hygrometry. Each animal was identified by a number carried on a ring attached to a wing. They received the same standard feed for laying hens, freely throughout the duration of the study. The drinking water was also distributed freely.
(§4) The average age of onset of laying for the hens in this strain is 20 weeks. Consequently, the average delay between the treatment and the age of onset of laying had to be from 3 to 5 weeks. The duration of the study was 40 weeks. At the end of the study, the hens were 55 weeks old.
(§5) Half of the total number was sacrificed on laying the first egg, in order to carry out a histomorphometric examination performed on a decalcified section of the proximal region of one of the tarsometatarsal bones in order to measure the trabecular and medullary bone volumes.
(§6) The other half of the total number of hens was monitored up to 55 weeks of age (i.e. after about 34 weeks of laying), at which point all the remaining animals were sacrificed. The same bone examination was carried out on these animals as on the hens sacrificed after laying the first egg.
(§7) The bone parameters were compared by means of a one-factor variance analysis (dose factor).
(§8) The histomorphometric examination carried out allows the changes in the structure of the bone to be assessed.

[5] = test system: medullary bone of the tarsometatarsal bone of hens; assay: Histomorphometric examination of medullary bone volume of the tarsometatarsal bone after a single subcutaneous administration; assay type: in vivo, hens of ISA Brown strain
Description: as §1, §2, §3, §4, §5, §6, §7, §8

[6] = test system: osteoporosis in menopausal women; conditions: 50 or 200 mg per person orally; cited from earlier work
[7] = at 55 weeks old, 1 mg/kg single subcutaneous injection
[8] = at 55 weeks old, 10 mg/kg single subcutaneous injection

Molecule	Trabecular bone volume higher than that of the control hens ([1]; after laying for 18 weeks, 0.01 mg/kg s.c., 6 administrations (total 0.06 mg/kg) from 14 weeks old)	Trabecular bone volume higher on average in the treated hens than in the control hens ([1]; onset of laying, 0.01 mg/kg subcutaneously, repeated before laying) [%]	Medullary bone volume less than that of the control animals [2]	Effect on egg production [3]	Trabecular bone loss during laying ([4]; 1 mg/kg, onset of laying to 55 weeks old)	Trabecular volume versus controls ([4]; at 55 weeks of age, 10 mg/kg)	Trabecular bone volume of the tarsometatarsal bone [4, 7] [%]	Trabecular bone volume of the tarsometatarsal bone [4, 8] [%]	Variation of trabecular bone volume between the two periods ([4]; onset of laying to 55 weeks old, 1 mg/kg)	Variation of trabecular bone volume between the two periods ([4]; onset of laying to 55 weeks old, 10 mg/kg) [%]	Trabecular bone volume of the tarsometatarsal bone ([4]; onset of laying, 1 mg/kg single subcutaneous injection at 15-17 weeks old) [%]	Gain in trabecular bone volume compared with the controls ([4]; onset of laying, 10 mg/kg) [%]	Trabecular bone volume of the tarsometatarsal bone ([4]; onset of laying, 10 mg/kg single subcutaneous injection at 15-17 weeks old) [%]	Average medullary bone volumes, comparison between the groups ([5]; at 55 weeks old, 0, 1 and 10 mg/kg)	Volume of medullary bone of the tarsometatarsal bone [5, 7] [%]	Medullary bone volume higher than that in the control animals ([5]; at 55 weeks old, 10 mg/kg) [%]	Volume of medullary bone of the tarsometatarsal bone [5, 8] [%]	Medullary bone volumes, comparison between the groups ([5]; onset of laying, 0, 1 and 10 mg/kg)	Efficacy in osteoporosis in menopausal women [6]
NCCCC(O)(P(=O)(O)O)P(=O)(O)O [alendronic acid]	about 35%	≤ 30	about 20%	harmful effect on egg production															
tiludronic acid					no trabecular bone loss took place during laying	significantly higher than that of the controls	11.3 ± 2.5	12.0 ± 2.0	+4%	−12	10.9 ± 2.9	12	13.7 ± 3.3	not significantly different between the groups	2.75 ± 2.72	20	3.53 ± 3.04	does not reveal any significant difference between the groups	not demonstrated their efficacy
